Values quoted from earlier work as cited in patent US20240173338A1, “PREPARATION AND ACTIVITY CHARACTERIZATION OF CANNABICITRAN ENANTIOMERS” (University of North Carolina at Wilmington, priority 2022, published 2024).

Key:
[1] = rabbits
[2] = biological target: T1, 5-HT1A (Homo sapiens, UniProt P08908)
T1 sequence (P08908 1-422): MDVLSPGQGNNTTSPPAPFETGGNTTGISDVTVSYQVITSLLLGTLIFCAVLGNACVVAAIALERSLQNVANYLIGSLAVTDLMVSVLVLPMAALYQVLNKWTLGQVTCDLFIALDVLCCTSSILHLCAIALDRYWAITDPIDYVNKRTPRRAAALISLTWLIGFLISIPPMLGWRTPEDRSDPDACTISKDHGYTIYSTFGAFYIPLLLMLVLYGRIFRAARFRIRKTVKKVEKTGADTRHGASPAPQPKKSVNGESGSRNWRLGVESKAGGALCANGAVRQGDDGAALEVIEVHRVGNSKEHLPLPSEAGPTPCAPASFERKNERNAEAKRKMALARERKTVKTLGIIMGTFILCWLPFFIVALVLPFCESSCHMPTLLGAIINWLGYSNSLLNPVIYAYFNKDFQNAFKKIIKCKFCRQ

[3] = system: multiple TRPs
[4] = biological target: GPR55 (Homo sapiens, UniProt Q9Y2T6)
[5] = biological target: CB1 (Homo sapiens, UniProt P21554)
[6] = biological target: CB2 (Homo sapiens, UniProt P34972)
CB2, sequence (P34972 whole entry, species assumed): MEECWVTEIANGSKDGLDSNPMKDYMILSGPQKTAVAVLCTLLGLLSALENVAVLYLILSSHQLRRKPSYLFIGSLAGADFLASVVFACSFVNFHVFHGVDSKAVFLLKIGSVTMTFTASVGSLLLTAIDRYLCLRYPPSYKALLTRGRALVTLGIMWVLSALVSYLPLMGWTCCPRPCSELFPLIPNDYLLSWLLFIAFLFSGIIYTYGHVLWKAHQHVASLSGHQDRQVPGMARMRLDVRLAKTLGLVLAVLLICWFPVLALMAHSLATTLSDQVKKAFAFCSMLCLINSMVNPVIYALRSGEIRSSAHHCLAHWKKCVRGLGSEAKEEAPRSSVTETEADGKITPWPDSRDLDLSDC

GPR55, sequence (Q9Y2T6 whole entry, species assumed): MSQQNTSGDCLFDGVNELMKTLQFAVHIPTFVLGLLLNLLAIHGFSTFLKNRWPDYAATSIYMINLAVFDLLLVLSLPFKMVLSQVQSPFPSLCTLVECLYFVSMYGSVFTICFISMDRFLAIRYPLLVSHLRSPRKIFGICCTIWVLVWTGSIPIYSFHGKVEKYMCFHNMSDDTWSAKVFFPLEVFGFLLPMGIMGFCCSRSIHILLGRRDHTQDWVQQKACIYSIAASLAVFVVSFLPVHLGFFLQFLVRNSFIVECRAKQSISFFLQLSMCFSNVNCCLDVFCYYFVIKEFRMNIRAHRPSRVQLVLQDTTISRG
CB1, sequence (P21554 whole entry, species assumed): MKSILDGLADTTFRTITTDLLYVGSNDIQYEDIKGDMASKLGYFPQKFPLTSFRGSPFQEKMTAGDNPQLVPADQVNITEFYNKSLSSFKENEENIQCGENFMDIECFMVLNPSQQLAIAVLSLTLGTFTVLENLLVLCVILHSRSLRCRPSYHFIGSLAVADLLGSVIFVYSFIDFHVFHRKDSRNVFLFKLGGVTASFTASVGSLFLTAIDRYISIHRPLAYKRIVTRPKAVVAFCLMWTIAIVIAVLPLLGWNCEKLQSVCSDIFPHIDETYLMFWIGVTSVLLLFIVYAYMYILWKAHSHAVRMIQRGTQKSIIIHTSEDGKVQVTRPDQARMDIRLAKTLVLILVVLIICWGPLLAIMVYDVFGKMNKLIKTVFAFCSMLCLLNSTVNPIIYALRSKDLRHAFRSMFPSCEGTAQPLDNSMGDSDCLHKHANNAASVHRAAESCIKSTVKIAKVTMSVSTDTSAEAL

CCCCCc1cc2c3c(c1)O[C@]1(C)CC[C@@H]([C@H]3C1)C(C)(C)O2 [CBT-C (3), cannabicitran]
effect on intraocular pressure [1]: reduces intraocular pressure

trans-CBD [(−)-2]
binding to 5-HT1A [2]: known to bind
binding to multiple TRPs [3]: known to bind
binding to GPR55 [4]: known to bind

trans-CBD [(+)-2]
binding to CB1 [5]: bind strongly
binding to CB2 [6]: bind strongly
